Experimental data: PMC9822769, “The Strange Case: The Unsymmetric Cisplatin-Based Pt(IV) Prodrug [Pt(CH3COO)Cl2(NH3)2(OH)] Exhibits Higher Cytotoxic Activity with respect to Its Symmetric Congeners due to Carrier-Mediated Cellular Uptake” (Bioinorganic Chemistry and Applications, 2022)

Columns and labels:
A2780 = test: Resazurin reduction cell viability assay, A2780; assay type: cell-based, human; settings: 72 h of treatment; mean ± sd
Description: The compounds under investigation were tested on a panel of commercial human cancer cell lines: ovarian endometrioid adenocarcinoma A2780 (ICLC HTL98008), its cisplatin-resistant variant A2780cisR (ECACC 93112517), colon carcinoma HCT 116 (ECACC 91091005), breast invasive ductal carcinoma MCF7 (ECACC 86012803), embryonal carcinoma NTERA-2 clone D1 (also known as NT2/D1, ICLC HTL97025), and lung adenocarcinoma A549 (ICLC HTL03001). Furthermore, a cell line derived from the pleural effusion of a patient with untreated malignant pleural mesothelioma (MPM) was added to the panel, namely, MM98 (sarcomatoid phenotype). Commercial cells were purchased from the European Collection of Authenticated Cell Cultures (ECACC, UK) or the Interlab Cell Line Collection (ICLC, Genoa, Italy), while the MM98 cell line was obtained from the Pathology Unit of the National Hospital of Alessandria (Italy).
The following media were used to grow the cells: RPMI 1640 (for A2780, A2780cisR, NT2/D1, and A549 cells), DMEM (for MCF7 cells), DMEM supplemented with nonessential amino acids (for MM98 cells), and McCoy's 5A (for HCT 116 cells). All media contained L-glutamine (2 mM) and were added with penicillin (100 IU·mL^−1), streptomycin (100 mg·L^−1), and 10% heat inactivated FBS. To maintain resistance in A2780cisR cells, cisplatin (1 μM) was added to the medium every two passages.
Continuous treatments (CT) were carried out at 37°C in a humidified chamber with 5% CO2. Cisplatin was dissolved in a 0.9% w/v NaCl aqueous solution and brought to pH = 3 with HCl (final stock concentration 1 mM). The Pt(IV) Complexes 1–3 were dissolved in milliQ water (final stock concentration 5 mM) and stored at −20°C. The stock concentration was confirmed with inductively coupled plasma-mass spectrometry (ICP-MS) measurements. The mother solutions were diluted in a complete medium to the required concentration.
To assess the growth inhibition of the compounds under investigation, a cell viability test (i.e., the resazurin reduction assay) was used. […] At the end of the treatment (72 h), viability was evaluated with 100 μg·mL^−1 resazurin (Acros Chemicals, France) in a fresh medium for 1 h at 37°C, and the amount of the reduced product, resorufin, was measured by fluorescence (excitation λ = 535 nm, emission λ = 595 nm) with a Tecan Infinite F200Pro plate reader (Tecan, Austria). In each experiment, cells were challenged with drug candidates at different concentrations, and the final data were calculated from at least three replicates of the same experiment performed in triplicate. The fluorescence of 8 wells containing a medium without cells was used as a blank. Fluorescence data were normalized to 100% cell viability for nontreated cells. […]

A2780 cells = test: Cellular Pt accumulation in A2780 cells in the presence of uptake inhibitors; assay type: cell-based, human; settings: A2780, 1 h, 10 μM; for effect of NaN3/2DG pretreatment on cell accumulation (AR): NaN3 and 2DG both 25 mM
Description: A2780 and A2780cisR cells were seeded in 10 mm Petri dishes and challenged with complexes under investigation (10 μM) in a complete medium for 4 h. At the end of the exposure, cells were washed three times with PBS, detached from Petri dishes using 0.05% trypsin 1x + 2% EDTA (HyClone, Thermo Fisher), and harvested in a completely fresh medium. An automatic cell counting device (Countess®, Life Technologies) was used to measure the number and mean diameter of each cell necessary to calculate the mean cellular (spherical) volume.
For the analysis of Pt accumulation, cells were transferred to a borosilicate glass tube and centrifuged at 1100 rpm for 5 min at room temperature. The supernatant was carefully removed by aspiration, while approximately, 200 μL of the supernatant was left to limit cell loss. Cellular pellets were stored at −80°C until mineralization.
The determination of the platinum content was performed by ICP-MS (Thermo Optek X Series 2). Mineralization was carried out by adding 70% w/w HNO3 to each sample (after defrosting), followed by incubation for 1 h at 60°C in an ultrasonic bath. Before the ICP-MS measurement, HNO3 was diluted to a final concentration of 1%. The instrument settings were optimized to produce the highest platinum sensitivity, and the most abundant isotopes of Pt and In (used as an internal standard) were quantified at m/z 195 and 115, respectively.
The quantity of Pt found in cells and normalized on cell number (cellular Pt accumulation) was expressed as ng of Pt per 10^6 cells. The mean cellular volume, calculated from the actual mean cell diameter measured for each sample (about 12 μm), was used to obtain the volume of 10^6 cells and, finally, the intracellular Pt concentration. At treatment time zero, 100 μL of the medium was taken from each sample to verify the extracellular Pt concentration. The ratio between intracellular and the actual extracellular concentrations is defined as the accumulation ratio, AR [70]. The Pt content in the control experiment, which characterizes any possible Pt contamination during the overall process, was statistically insignificant with respect to the cellular Pt accumulated during treatment, even in the case of A2780cisR.
Experiments with the inhibitors were carried out at 37°C as follows: (i) NaN3 + 2-deoxy-D-glucose (2DG): preincubation for 30 min in PBS with 25 mM NaN3 and 25 mM 2DG, followed by a 10 μM CT with the Pt compounds in Earle's Balanced Salt Solution (EBSS) for 1 h; (ii) cimetidine (CMT): coincubation with 1.5 mM CMT and 10 μM Pt compounds in EBSS for 1 h; (iii) 1-methyl-4-phenylpyridin-1-ium (MPP^+): coincubation with 2.0 mM MPP^+ and 10 μM Pt compounds in EBSS for 1 h; (iv) cytochalasin D (CTD): preincubation for 30 min in EBSS with 10 μM CTD, followed by a 10 μM CT with the Pt compounds in EBSS for 1 h; (v) O-benzylserine (BS): coincubation with 1.0 mM BS and 10 μM Pt compounds in EBSS for 4 h; (vi) ouabain (OUA): preincubation for 1 h in EBSS with 1 mM OUA, followed by a 10 μM CT with the Pt compounds in EBSS for 4 h; (vii) tetraethylammonium chloride (TEA): […] in EBSS for 4 h. In the experiments at low temperature, A2780 cells were preincubated for 2 h at 4°C, followed by CT with each Pt compound (10 μM) for 4 h. In all cases, at the end of the CT, the cells were manipulated as described in the previous paragraphs.

Row | SMILES | IC50 (A2780) | effect of O-benzylserine (BS) on cellular accumulation (A2780 cells; BS cotreatment 1 mM) | effect of cimetidine (CMT) on cell accumulation (A2780 cells; CMT cotreatment 1.5 mM) | effect of cytochalasin D (CTD) on Pt accumulation (A2780 cells; CTD pretreatment 10 μM) | effect of MPP+ on cell accumulation (A2780 cells; MPP+ cotreatment 2 mM) | effect of NaN3/2DG pretreatment on cell accumulation (AR) (A2780 cells) | effect of ouabain (OUA) on cellular accumulation (A2780 cells; OUA pretreatment 1 mM) | effect of tetraethylammonium (TEA) on uptake (A2780 cells; TEA pretreatment 20 mg·mL^−1) | effect of OCT inhibitors (TEA, MPP+, CMT) on AR (A2780 cells)
1 | CC(=O)[O][Pt]([OH])([Cl])[Cl].N.N [Complex 2, (OC-6-44)-acetatodiamminedichloridohydroxidoplatinum(IV)] | 160 ± 50 nM | did not cause a significant effect | inhibited | did not cause any decrease | inhibited | statistically reduced | did not cause a significant effect | evident (albeit statistically not significant) decrease | 
2 | CC(=O)[O][Pt]([NH2])([NH2])([Cl])([Cl])[O]C(C)=O [Complex 3, (OC-6-33)-diamminedichloridodiacetatoplatinum(IV)] | 12100 ± 5200 nM |  |  |  |  | without appreciably affecting |  |  | not significantly affected
3 | N.N.[OH][Pt]([OH])([Cl])[Cl] [Complex 1, (OC-6-33)-diamminedichloridodihydroxidoplatinum(IV)] | 3710 ± 1930 nM |  |  |  |  | without appreciably affecting |  |  | not significantly affected
4 | N.N.[Cl][Pt][Cl] [Cisplatin, (SP-4-2)-diamminedichloridoplatinum(II)] | 480 ± 120 nM |  |  |  |  |  |  |  | 
